In general, melting point refers to the temperature of the solid-liquid transition.

`CC1OCCN1CCNc1ccc(NCCN2CCOC2C)c2c1C(=O)c1c(O)ccc(O)c1C2=O` (centres undefined) returned a melting point of 161 to 168 °C. The molecule `O=C(O)c1c(-c2cccc(Cl)c2)csc1N1C(=O)c2ccccc2C1=O` showed a melting point of 203 to 204 °C.

Take `COc1cc(Cl)ccc1N(Cc1cccnc1)S(C)(=O)=O`: the melting point lay in the range of 121 to 123 °C.

In turn, `O=CN1c2ccccc2N(Cc2ccccc2)CC1CN1CCCC1` (centres undefined) registered a melting point of 94 to 96 °C. Under `CCOC(=O)c1cnn(-c2ccc(F)cc2)c1C` stands 48 to 49 °C; under `CP(C)(=O)COc1cc(Cl)c(C=O)c(Cl)c1`, 136 to 139 °C; under `CCCCCCCCCCCCCCc1cc(C(=O)OCC)c[nH]1`, 59 to 62 °C. Under `Cn1ccc2c1CCN1C(=O)CCC21` (centres undefined) stands 122 to 125 °C; under `C=C(c1ccc(Br)cc1)c1ccc(OCCCC)cc1`, 71.8 to 73 °C; under `Cc1cccnc1C(CO)COc1ccc(CC2SC(=O)NC2=O)cc1` (centres undefined), 182 to 183 °C. In the case of `Cc1cnc2nc(C(F)(F)F)n(C)c2c1` it was 100 °C; in that of `O=C1Nc2nncn2CC1c1ccccc1` (centres undefined), 184 to 186 °C; in that of `COc1cc2ncnc(N3CCN(C(=O)NCc4cccs4)CC3)c2cc1OC`, 168 to 170 °C. Take `Cc1ccc(Cc2c(C(F)(F)F)[nH][nH]c2=O)cc1`: the melting point was 150 to 152 °C. As for `CCOC(=O)Cc1ccc(NC(=O)Nc2ccccc2C(F)(F)F)cc1`, the melting point lay in the range of 137 to 139 °C.

Consider `CC1(C)CON(Cc2ccc(Nc3cc4ccccc4c(=O)o3)cc2)C1=O`, for which the melting point was in the range of 175 to 177 °C.

In turn, `COc1ccc2[nH]cc(CCN3CCC(Oc4ccc(F)cc4)CC3)c2c1` returned a melting point of 132 to 134 °C. With `CCCCCCCCCCCCCCCC(=O)NC(C(=O)OC)C(O)CCCCCCCCCCCCCCC` (centres undefined), the melting point stood at 80 °C.

For `CCCCCCCSc1nnc(N)s1`, the melting point fell in the range of 112 to 113 °C. Under `CCOC(=O)C(=O)Nc1ccc(Oc2ccc(NC(=O)C(=O)OCC)cc2)cc1` stands 150 to 158 °C; under `CCc1cc2c(c(CC)n1)CCC(=O)N2Cc1ccc(-c2ccccc2-c2nnn(C(c3ccccc3)(c3ccccc3)c3ccccc3)n2)cc1`, 165 to 167 °C; under `Cc1c(C)c2c(c(Br)c1NC(=O)CC(C)(C)C)C(c1ccc(C(C)C)cc1)CO2` (centres undefined), 150 to 151 °C. `CC(C)Oc1c(C2=CC(C)(C)Oc3ccc(C#N)cc32)c(=O)c1=O` came in with a melting point of 169 to 170 °C.

The molecule `CCCCCCCCC(CCCCCCCC)n1c2ccsc2c2sccc21` displayed a melting point of 60 °C. In the case of `O=C(N[C@@H](Cc1ccccc1)C(=O)O)c1cccc(NC(=O)C(CS)Cc2ccccc2)c1` (some centres undefined) it was 83 to 85 °C; in that of `CCCCCC(C=Cc1ccc(C(=O)O)cc1)c1ccc2c(c1)C(C)(C)CCS2` (racemic), 146 °C. In the case of `CN1CC(=O)Nc2ccc(Cl)cc2C1=O` it was greater than 250 °C; in that of `COc1cc(C2CCN(C[C@@H](O)CO)CC2)ccc1-c1nc2c(N[C@H]3[C@@H](C(N)=O)[C@@H]4C=C[C@H]3C4)c(Cl)cnc2[nH]1`, 209 to 211 °C. In the case of `O=C(Nc1nnn(C(F)F)n1)C(c1ccccc1)c1ccccc1` it was 143 to 145 °C; in that of `CN1CCc2c(-c3ccc([N+](=O)[O-])cc3)cc3c(c2C1)NC(=O)C3=O`, greater than 300 °C; in that of `CCCP(=O)(CCC)COS(=O)(=O)c1c(C)cccc1Cl`, 51 to 53 °C. On to `CCCCCCNc1ccncc1`, for which the melting point was 68 to 70 °C. Turning to `CCOC(=O)NN=C(c1ccc(Cl)cc1)c1ccc(OP(=S)(OCC)OCC)cc1`, the melting point was 106 °C. Under `COC1=CCc2cccc(N)c2C1` stands 84 to 85 °C; under `Cc1cn(Cc2cccc(Cl)c2)cc1C(=O)CC(=O)C(=O)O`, 148 to 149 °C. Under `CCOC(=O)C1(NC=O)Cc2ccccc2NC1=O` (centres undefined) stands 187 to 190 °C; under `Cc1ccc(-n2nccc2-c2nn(-c3cccc(C(F)(F)F)c3)ccc2=O)cc1`, 164 to 165 °C; under `Cc1nnsc1C(=O)Nc1ccc(-n2nc(C(F)(F)F)cc2C2CC2)c(F)c1`, 105 to 112 °C. In the case of `CCN1C(=O)CC2(CC(=O)N(Cc3ccccc3)C2)C1=O` (centres undefined) it was 125 to 126 °C; in that of `COc1ccc(-n2c(=O)n(C)c(=O)n(CC(C)(C)C)c2=O)cc1`, 134 °C; in that of `Cc1c2c(nn1C(C)C)c(N)nc1ccccc12`, 221 to 222 °C.

As to `CCOC(=O)c1cnc2ccn(Cc3ccccc3)n2c1=O`, the melting point lay within 172 to 173 °C. The molecule `CSc1cc(C(F)(F)F)ccc1C(=O)O` yielded a melting point of 178 to 179 °C. In the case of `Clc1ccc(-c2c(-c3ccccc3)nn3ccccc23)nn1` it was 206 °C; in that of `O=C1NC(=O)C(=Cc2ccccc2)S1`, 246 to 248 °C.

For the molecule `NS(=O)(=O)c1ccc(-c2cnn(CC(F)(F)F)c(=O)c2-c2ccc(F)cc2)cc1`, the melting point is 193 to 195 °C. `COCCNC(=O)c1cccc(-c2cccc3c2nc(Oc2ccc(Cl)c(F)c2)n3C)c1`: the melting point lay within 150 to 151 °C. In the case of `Cc1nc(CS(C)(=O)=O)nc(OC(=O)NN2CC(C)OC(C)C2)c1C` (centres undefined) it was 103 °C; in that of `O=c1[nH]nc2c3c(cccc13)N=C(CN1CCCN(Cc3ccc(F)cc3)CC1)N2`, 163 to 165 °C; in that of `CS(=O)c1ccccc1C1CCCC2(C1)C(=O)Nc1ccccc12` (centres undefined), 190 to 191 °C. Under `O=C(Nc1ccc(Cl)cc1[N+](=O)[O-])NC1CCCCC1` stands 115 to 116 °C; under `CCCc1nc(C(C)O)c(C(=O)O)n1Cc1ccc(-c2ccccc2-c2nnn[nH]2)cc1` (centres undefined), 198 to 201 °C; under `CON=C(C1=NCCO1)c1ccccc1Oc1ccc(C(F)(F)F)cn1`, 97 to 100 °C. Take `CCCCN=C1c2ccccc2CCc2c1nc1c(cnn1CC)c2NCCCC`: the melting point lay in the range of 124 to 125 °C. In the case of `CS(=O)(=O)Nc1ccccc1SCc1ncon1` it was 106 °C; in that of `COc1cc(Cl)c(N)c(C(=O)O)c1OC`, 140 to 142 °C; in that of `Cc1cc(/C=C/C(=O)N(C)O)c(C)n1-c1ccc(C(=O)N(C)C)cc1`, 172 to 174 °C.

On to `COc1ccc(CC(=O)NCc2ccccc2-c2ccccc2C(=O)NCCc2cccnc2)cc1`, for which the melting point was 116 °C. In the case of `FC(F)(F)COc1ccc(-c2cc(C(F)(F)F)n3cnc(-c4ccncc4)c3n2)cc1C(F)(F)F` it was 269 °C; in that of `COc1ccccc1N1CCN(CCNc2ccccn2)CC1`, 89 to 94 °C. Under `CC(=O)OCC1OC(ONc2ccc(C)cc2)C(OC(C)=O)C(OC(C)=O)C1OC(C)=O` (centres undefined) stands 93 °C; under `Cc1[nH]c(C=O)c(C)c1CNC(=O)C(F)(F)F`, 200 °C; under `NS(=O)(=O)c1ccc(-c2cc(-c3nc(-c4ccc(C(F)(F)F)cc4)cc(C(F)F)n3)ccn2)s1`, 242 °C. In the case of `O=c1[nH]c2cc3ccc(C(F)(F)F)cc3nc2[nH]1` it was greater than 250 °C; in that of `C[C@@H](S[C@H]1CO[C@H](c2ccc(C(=O)NCc3cccc4ccccc34)cc2)OC1)[C@](O)(Cn1cncn1)c1ccc(F)cc1F`, 97 °C; in that of `BrCCCOc1ccc(OCCCBr)cc1`, 78 to 80 °C. As for `CNc1nc(C)c(-c2cn3ccc(C)cc3n2)s1`, the melting point is 220 to 221 °C.

`CCOC(=O)c1cn(-c2cc(OC)c(F)cc2F)c2c(C)c([N+](=O)[O-])c(F)cc2c1=O`: the melting point was 248 to 250 °C. Under `Cc1nc2cc(-c3ccc(C=C4SC(=O)NC4=O)cn3)cc(C34CC5CC(CC(C5)C3)C4)c2o1` stands greater than 360 °C; under `N#CCCCN1CCOC(c2ccccc2)(c2ccccc2)CC1`, 89 to 90 °C; under `N#Cc1cccnc1N1CCN(CC(=O)Nc2cccc(C(F)(F)F)c2)CC1`, 157 to 158 °C. Turning to `COc1cc(COc2nn(-c3ccccc3)cc2/C=C/c2csc(C(C)C)n2)ccc1OCc1nc(-c2ccc(CC(=O)O)cc2)oc1C`, the melting point fell in the range of 107 to 109 °C. Take `Nc1ccc(-n2ccn(-c3ccc(OC(F)(F)C(F)F)cc3)c2=O)cc1`: the melting point is 150 to 151 °C.

For `CS(=O)(=O)c1ccc(-c2cnn(-c3ccc(F)cc3)c(=O)c2COc2cccc(F)c2)cc1`, the melting point was 142 to 144 °C.

With `COC(=O)CCCCCNC(=O)C(COS(C)(=O)=O)NS(=O)(=O)c1ccc(Cl)cc1` (racemic), the melting point is 81 to 84 °C.

Regarding `CC(=O)Oc1ccc(C=CC(=O)O)cc1Cl`, the melting point lay within 210 to 213 °C. Under `O=C1NCCN1c1ccc(S(=O)(=O)Nc2ccc3c(c2)OCO3)cc1` stands 219 to 220 °C. `CCN(CC)C(N)=C(C#N)C(N)=S`: the melting point is 151 to 152 °C.

The molecule `CC(=O)Nc1ccc2c(c1)C(=O)C(=O)N2CCN(C(C)C)C(C)C` yielded a melting point of 187 to 190 °C.

The molecule `O=C(Nc1ccc(-n2nc(C(F)(F)F)cc2C(F)(F)F)cc1)c1ccc(Br)cc1Cl` registered a melting point of 164 to 167 °C. Under `CN1C(=O)CCC2(C)c3ccc(-c4cccs4)cc3CCC12` (centres undefined) stands 193 to 195 °C; under `O=C(OCCCI)C(=C1NCCCS1)[N+](=O)[O-]`, 58 to 60 °C. With `CC(C)n1nc(-c2nc(Br)c(N=S(C)C)nc2-c2ccccc2)ccc1=O`, the melting point was in the range of 220 to 224 °C. In the case of `S=c1[nH]cnn1C1CCc2ccccc2C1` (centres undefined) it was 200 °C. Consider `CC(=O)Nc1c(C(=O)c2ccc(F)cc2)[nH]c2cc(Cl)ccc12`, for which the melting point fell in the range of 205 to 207 °C. In the case of `CNS(=O)(=O)Cc1ccc(NC(=O)C(F)(F)F)c(Br)c1` it was 170 °C; in that of `Cn1cc(-c2cc3cccnc3[nH]2)c2cc(C(=O)O)ccc21`, greater than 300 °C; in that of `Clc1ccc2ccc(COc3ccc(CN4CCc5cccc(CCc6nnn[nH]6)c54)cc3)nc2c1`, 69 to 73 °C. In the case of `CS(=O)(=O)Nc1ccc(CCN2CCN(c3ccc(NS(C)(=O)=O)c(F)c3)CC2)cc1` it was 232 to 234 °C.
